Measured values reported in ChEMBL document CHEMBL3997833, “Efficient synthesis of α-fluoromethylhistidine di-hydrochloride and demonstration of its efficacy as a glutathione S-transferase inhibitor” (Bioorg Med Chem Lett, 2017).

Columns and labels:
[1] = tested on: GST (glutathione S-transferase); experiment: (§1) Inhibition of Schistosoma japonicum C-terminal His6-tagged GST expressed in Escherichia coli BL21(DE3) assessed as reduction in GSH transfer activity by measuring residual activity at 150 uM using GSH/CDNB co-substrate mixture preincubated for 10 mins followed by substrate addition by colorimetric method relative to control; settings: probe GSH/CDNB co-substrate mixture, read-out: Activity
[2] = tested on: GST (glutathione S-transferase); experiment: as §1, with “10 mM” for “150 uM”; settings: probe GSH/CDNB co-substrate mixture, read-out: Activity

| Structure (SMILES) | activity at 150 µM [1] | activity at 10000 µM [2] |
| --- | --- | --- |
| N[C@@](CF)(Cc1cnc[nH]1)C(=O)O | 57% | – |
| Nc1ccc(C(=O)O)cc1 [AMINOBENZOIC ACID] | – | 33% |
